According to paper PMC9266914, “Broad Spectrum Functional Activity of Structurally Related Monoanionic Au(III) Bis(Dithiolene) Complexes” (International Journal of Molecular Sciences, 2022):

How the values were obtained:
P. berghei hepatic stage = test: In vitro activity against the hepatic stage of P. berghei infection (luciferase, Huh7 cells); assay type: cell-based, Plasmodium berghei; conditions: hepatic stage, Huh7 cells, 46 hpi
Method: The in vitro liver stage activity of gold complexes was assessed against P. berghei-infected Huh7 cells, as previously described. Briefly, Huh7 cells were cultured in RPMI-1640 medium supplemented with 10% (v/v) fetal bovine serum, 1% (v/v) penicillin/streptomycin, 1% (v/v) glutamine, 1% (v/v) non-essential amino acids and 10 mM HEPES. On the day prior to infection, Huh7 cells were seeded in 96-well plates at a density of approximately 3.1 × 10^4 cell/cm^2 and incubated at 37 °C, 5% CO2. Stock solutions of the complexes were initially prepared in DMSO and serially diluted in infection medium, i.e., culture medium supplemented with gentamicin (50 µg/mL) and fungizone (0.8 µg/mL), to obtain the test concentrations. As a control, DMSO was diluted in infection medium to a percentage that equals that of the highest compound concentrations tested. These dilutions were added to the cells in triplicates and incubated for 1 h at 37 °C, 5% CO2, after which 1 × 10^4 luciferase-expressing P. berghei sporozoites were added to each well. Plates were centrifuged at 1800× g for 5 min at room temperature and incubated for the duration of the assay. At 46 h post-infection (hpi), the impact of each compound concentration on cell viability was assessed by the Alamar Blue (Invitrogen, Buckinghamshire, UK) assay, according to the manufacturer’s recommendations. Infection was next assessed by bioluminescence, employing the Firefly Luciferase Assay Kit 2.0 (Biotium, Fremont, CA, USA), according to the manufacturer’s recommendations. For IC50 determination, nonlinear regression analysis was employed to fit the normalized results of the dose–response curves, using GraphPad Prism 8 (GraphPad software, La Jolla, CA, USA).

HIV-1 SG3.1 = test: Single-round viral infectivity assay in TZM-bl reporter cells; assay type: cell-based; conditions: SG3.1 isolate, 48 h, in words
Method: The HIV-1 SG3.1 subtype B strain was obtained by transfection of HEK293T cells with pSG3.1 plasmid using jetPrime transfection reagent (Polyplus-tranfection SA, Illkirch, France) according to the manufacturer’s instructions. The 50% tissue culture infectious dose (TCID50) of the virus was determined in a single-round viral infectivity assay using a luciferase reporter gene assay in TZM-bl cells and calculated using the statistical method of Reed and Muench.
The antiviral activity of Auranofin, [P][AuSEt(=S)] and [P][AuSBu(=S)] compounds was determined in a single-round viral infectivity assay using TZM-bl reporter cells, as previously described. Briefly, TZM-bl cells were infected with 200 TCID50 of SG3.1 in the presence of serial-fold dilutions of the compounds in growth medium, supplemented with DEAE-dextran. After 48 h of infection, luciferase expression was quantified with Pierce Firefly Luc One-Step Glow Assay Kit (ThermoFisher Scientific, Rockford, IL, USA) according to the manufacturer’s instructions.
At least two independent experiments were performed for each antiviral activity analysis. The assay was set up in triplicate wells. Virus controls and cell controls were used.

[1] = molecular target: human serum albumin (HSA) (Homo sapiens, UniProt P02768); test: HSA fluorescence quenching (Stern-Volmer); assay type: binding; conditions: for Stern Volmer quenching constant KSV / association constant Ka / bimolecular quenching constant Kq / number of binding sites n: HSA, Hepes pH 7.4; for HSA fluorescence intensity quenched: two molar excesses of complex, 37 °C, 24 h, pH 7.4
Method: Stock solutions of HSA were prepared by dissolving HSA in 10 mM Hepes buffer, pH 7.4. The protein concentration was determined spectrophotometrically using the molar absorption coefficient of 36,500 M^−1 cm^−1 at 280 nm. The complexes [P][AuSEt(=S)], [P][AuSEt(=Se)], [P][AuSeiPr(=S)] and [P][AuSBu(=S)] were first prepared at 1 mM concentration in DMSO due to the limited solubility of the complexes in aqueous media. A series of complex–protein solutions were prepared by adding different concentrations of gold complexes solutions to the protein solution previously prepared. After preparation of the batch complex–protein solutions, the final concentration of DMSO was 1%. For fluorescence acquisition, the final HSA concentration was […] and the gold concentrations were […]. The mixtures were stirred to ensure the formation of a homogeneous solution and then kept in an incubator at 37 °C for 24 h in the dark to stabilize and enhance the interaction time. The reference solutions without protein were prepared following the procedures described above.
Steady-state fluorescence measurements were performed with a Fluorolog Model-3.22 spectrofluorimeter from Horiba Jobin Yvon at 25 °C. All the experiments were performed in Hellma® semi-micro fluorescence cuvettes (Suprasil® quartz, path-length 10 × 4 mm, chamber volume […]) with the 10 mm path length for the excitation of the sample. The excitation and emission bandwidths were fixed at 4.0 nm, and the excitation wavelength was 295 nm to excite selectively the tryptophan 214 residue, the emission spectra were recorded from 305 to 550 nm. Buffer solutions of gold complexes in corresponding concentrations were used as reference for the measured fluorescence spectra of protein–complex mixtures. The fluorescence intensities were corrected for the absorption of the exciting light and reabsorption of the emitted light to decrease the inner filter effect using UV–visible absorption data recorded for each sample on a Jasco V-660 spectrophotometer in the range of 260 to 800 nm with 1 mm path quartz cells. More details and all the equations can be found in the SI.
F0 = 1 + (K + K )[Q] + K K [Q]2 (S1) where F0 and F are the fluorescence intensities of HSA in the absence and presence of a quencher (Au complex), respectively; KD and KS represents the dynamic and static constants, respectively, and [Q] is the quencher concentration.
When the fluorescence intensity quenching occurs by a purely static or dynamic mechanism, the following Stern-Volmer equation can be used:
F0 = 1 + K τ [Q] = 1 + K [Q] (S2) where Kq, 0 and KSV represents the bimolecular quenching constant, the fluorophore lifetime in the absence of the quencher and the Stern -Volmer quenching constant, respectively.
The relationship between the fluorescence intensity of the protein and the complex concentrati on is given by the equation:
log (F0 − F) = log K + n log[Q] […]
Table S1. Values of Stern Volmer quenching constant (Ksv), association constant (Ka) and number of binding sites (n) for the interaction for HSA with gold […]

Chain of human serum albumin (HSA) (P02768 25-609): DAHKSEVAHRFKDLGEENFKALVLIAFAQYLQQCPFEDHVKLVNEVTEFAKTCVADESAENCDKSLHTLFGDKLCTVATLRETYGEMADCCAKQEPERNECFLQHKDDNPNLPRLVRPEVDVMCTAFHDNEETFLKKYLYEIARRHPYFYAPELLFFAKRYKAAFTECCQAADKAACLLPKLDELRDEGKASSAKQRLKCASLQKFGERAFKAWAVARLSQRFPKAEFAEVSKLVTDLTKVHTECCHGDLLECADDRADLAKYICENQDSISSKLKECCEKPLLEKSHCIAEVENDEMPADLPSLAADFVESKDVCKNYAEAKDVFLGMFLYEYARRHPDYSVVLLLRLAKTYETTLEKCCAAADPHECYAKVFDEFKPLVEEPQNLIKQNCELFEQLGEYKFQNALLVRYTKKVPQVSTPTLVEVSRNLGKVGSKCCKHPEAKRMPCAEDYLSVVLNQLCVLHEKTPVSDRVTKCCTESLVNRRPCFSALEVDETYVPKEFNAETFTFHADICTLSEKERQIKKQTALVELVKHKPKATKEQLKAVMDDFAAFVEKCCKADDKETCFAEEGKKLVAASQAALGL

For CCn1c2c(sc1=S)[S][Au-]1([S]c3sc(=S)n(CC)c3[S]1)[S]2.c1ccc([P+](c2ccccc2)(c2ccccc2)c2ccccc2)cc1 [[P][AuSEt(=S)]], which IC50 (P. berghei hepatic stage) is on record?
Its IC50 is 0.474 ± 0.11 µM.

And the anti-HIV-1 activity (HIV-1 SG3.1)?
The anti-HIV-1 activity was “none of the compounds presented anti-HIV-1 activity”.

And the “Stern Volmer quenching constant KSV” value [1]?
Its value is 6.48 ± 0.06 x 105 L mol-1.

What about the “association constant Ka” value [1] of the same compound?
The value was 1.12 ± 0.02 x 104 L mol-1.

What about the “bimolecular quenching constant Kq” value [1] of the same compound?
Its value is 6.48 ± 0.06 x 1013 L mol-1 s-1.

And the “number of binding sites n” value [1]?
The value was 1.179.

And the “HSA fluorescence intensity quenched” value [1]?
Its value is 76.3%.

What does the source list for CCCCn1c2c(sc1=S)[S][Au-]1([S]c3sc(=S)n(CCCC)c3[S]1)[S]2.c1ccc([P+](c2ccccc2)(c2ccccc2)c2ccccc2)cc1 [[P][AuSBu(=S)]]?
IC50 (P. berghei hepatic stage): 0.47 ± 0.115 µM; anti-HIV-1 activity (HIV-1 SG3.1): none of the compounds presented anti-HIV-1 activity; Stern Volmer quenching constant KSV [1]: 14.9 ± 0.13 x 105 L mol-1; association constant Ka [1]: 9.34 ± 0.01 x 104 L mol-1; bimolecular quenching constant Kq [1]: 14.9 ± 0.05 x 1013 L mol-1 s-1; number of binding sites n [1]: 0.738; HSA fluorescence intensity quenched [1]: 89.7%

How did the IC50 (P. berghei hepatic stage) turn out when CCn1c2c(sc1=[Se])[S][Au-]1([S]c3sc(=[Se])n(CC)c3[S]1)[S]2.c1ccc([P+](c2ccccc2)(c2ccccc2)c2ccccc2)cc1 [[P][AuSEt(=Se)]] was run?
Its IC50 is 0.416 ± 0.123 µM.

And the “Stern Volmer quenching constant KSV” value [1]?
Its value is 5.00 ± 0.17 x 105 L mol-1.

And the “association constant Ka” value [1]?
Its value is 0.52 ± 0.03 x 104 L mol-1.

And the “bimolecular quenching constant Kq” value [1]?
Its value is 5.00 ± 0.17 x 1013 L mol-1 s-1.

What about the “number of binding sites n” value [1] of the same compound?
The value was 2.135.

What about the “HSA fluorescence intensity quenched” value [1] of the same compound?
Its value is 79.4%.

Which results are given for CC(C)n1c2c(sc1=S)[Se][Au-]1([Se]c3sc(=S)n(C(C)C)c3[Se]1)[Se]2.c1ccc([P+](c2ccccc2)(c2ccccc2)c2ccccc2)cc1 [[P][AuSeiPr(=S)]]?
IC50 (P. berghei hepatic stage): 0.748 ± 0.0702 µM; Stern Volmer quenching constant KSV [1]: 3.63 ± 0.04 x 105 L mol-1; association constant Ka [1]: 1.52 ± 0.01 x 104 L mol-1; bimolecular quenching constant Kq [1]: 3.63 ± 0.01 x 1013 L mol-1 s-1; number of binding sites n [1]: 0.957; HSA fluorescence intensity quenched [1]: 60%

With CC(=O)OC[C@H]1O[C@@H]([S-])[C@H](OC(C)=O)[C@@H](OC(C)=O)[C@@H]1OC(C)=O.CCP(CC)CC.[Au+] [Auranofin, reference compound] as the compound, how does the anti-HIV-1 activity (HIV-1 SG3.1) read?
The anti-HIV-1 activity was “none of the compounds presented anti-HIV-1 activity”.
